Assay results published in PubChem BioAssay (NCI).
“And” between values parts separate entries of the source, which are not always exact repeats. Identical values can stand only once.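 Five concentrations, 48 hours, 96-well plates. Here, GI50 denotes the concentration required for 50% inhibition of growth. The concentration for full growth arrest is given as TGI.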

Assays:
Assay in all cases: NCI anticancer screen, dose series, 48 h
U251 CNS = system: U251 CNS
OVCAR-3 ovarian = system: OVCAR-3 ovarian
786-0 renal = system: 786-0 renal
SN12C renal = system: SN12C renal
SW-620 colon = system: SW-620 colon
HL-60(TB) leukemia = system: HL-60(TB) leukemia
HT29 colon = system: HT29 colon
IGROV1 ovarian = system: IGROV1 ovarian
OVCAR-4 ovarian = system: OVCAR-4 ovarian
NCI-H23 lung = system: NCI-H23 lung

| SMILES | GI50 (U251 CNS) | TGI (U251 CNS) | GI50 (OVCAR-3 ovarian) | TGI (OVCAR-3 ovarian) | GI50 (786-0 renal) | TGI (786-0 renal) | GI50 (SN12C renal) | TGI (SN12C renal) | GI50 (SW-620 colon) | TGI (SW-620 colon) | GI50 (HL-60(TB) leukemia) | TGI (HL-60(TB) leukemia) | GI50 (HT29 colon) | TGI (HT29 colon) | GI50 (IGROV1 ovarian) | TGI (IGROV1 ovarian) | GI50 (OVCAR-4 ovarian) | TGI (OVCAR-4 ovarian) | GI50 (NCI-H23 lung) | TGI (NCI-H23 lung) |
| --- | --- | --- | --- | --- | --- | --- | --- | --- | --- | --- | --- | --- | --- | --- | --- | --- | --- | --- | --- | --- |
| CC(C)(C)[Si](C)(C)OC1[C@@H](CNC(N)=O)O[C@@H](n2cnc3c(NC(=O)Nc4ccccc4)ncnc32)[C@H]1O[Si](C)(C)C(C)(C)C (some centres not stated) | 1890 nM | 7930 nM | 1120 nM | 2310 nM | 2220 nM | 8170 nM | 916 nM | 1840 nM | 981 nM | 1870 nM | 1010 nM | 2120 nM | 1070 nM | 2220 nM | 2120 nM | 7360 nM | 2480 nM | 10100 nM | 1900 nM | 7830 nM |
| ClCc1cccc(Cn2cnc3c(Cl)nc(Cl)nc32)c1 | 1700 nM | 3090 nM | 1590 nM | 3210 nM | 12400 nM | 26800 nM | 2140 nM | 4660 nM | 1570 nM | 3500 nM | 642 nM | > 100000 nM | 2390 nM | > 100000 nM | 2270 nM | 5180 nM | 5510 nM | 20100 nM | 2140 nM | 5090 nM |
| CC1=Nc2ccccc2SC(c2c(Cl)cccc2Cl)C1 (configuration not stated) | – | 1140 nM | – | 885 nM | – | 1490 nM | – | 2700 nM | – | 1340 nM | – | 1120 nM | – | 1570 nM | – | 3310 nM | – | 4560 nM | – | 2640 nM |
| COc1ccc(C(=O)c2sc3nc(-c4ccccc4OC)ccc3c2N)cc1OC | 14200 nM | > 100000 nM | 18300 nM | > 100000 nM | 11700 nM | > 100000 nM | 7950 nM | > 100000 nM | > 100000 nM | > 100000 nM | 4070 nM | > 100000 nM | 4900 nM | > 100000 nM | 20300 nM | > 100000 nM | 7490 nM | > 100000 nM | 50100 nM | > 100000 nM |
| CC1CC2(S(=O)(=O)c3ccccc3)ON1CC2S(=O)(=O)c1ccccc1 (configuration not stated) | – | > 100000 nM | – | > 100000 nM | – | > 100000 nM | – | > 100000 nM | – | > 100000 nM | – | > 100000 nM | – | > 100000 nM | – | > 100000 nM | – | > 100000 nM | – | > 100000 nM |
| CCSc1ccc([C@@H]2[C@@H](O)C(=O)N2c2cc(OC)c(OC)c(OC)c2)cc1 | < 14.4 nM | 16000 nM | < 10 nM | 548 nM | < 16 nM | 29000 nM | 44.1 nM | 22200 nM | < 12.1 nM | > 100000 nM | < 13.4 nM | 36.7 nM | < 15.5 nM | 11500 nM | 23.5 nM | 66200 nM | 67.4 nM | 75800 nM | 45.6 nM | 61000 nM |
| CCCCCCNCCCNc1c2cc(OC)ccc2nc2cccc([N+](=O)[O-])c12 | 40.7 nM | – | 309 nM | 297 nM and 1050 nM | 205 nM | 368 nM and 724 nM | 132 nM | 421 nM and 343 nM | 132 nM | 4190 nM and 1300 nM | 155 nM | – | 54.4 nM | 407 nM and 353 nM | 223 nM | – | 88.5 nM | 346 nM and 238 nM | 165 nM | 296 nM and 351 nM |
| OC1=CN=COc2ccccc21 | – | > 100000 nM | – | > 100000 nM | – | > 100000 nM | – | > 100000 nM | – | > 100000 nM | – | > 100000 nM | – | > 100000 nM | – | > 100000 nM | – | > 100000 nM | – | > 100000 nM |
| COc1ccc(/C=C(\NC(=O)c2ccccc2)c2nc3ccccc3[nH]2)cc1OC | – | > 100000 nM | – | > 100000 nM | – | > 100000 nM | – | > 100000 nM | – | > 100000 nM | – | > 100000 nM | – | > 100000 nM | – | > 100000 nM | – | > 100000 nM | – | > 100000 nM |
| CCn1cc(/C=C2\Oc3cc(OCC#N)ccc3C2=O)c2cc(OC)ccc21 | 425 nM | > 48700 nM | 127 nM | 4940 nM | 167 nM | > 40900 nM | 711 nM | > 100000 nM | 131 nM | > 100000 nM | 87.2 nM | 903 nM | 134 nM | > 100000 nM | 509 nM | > 100000 nM | 11200 nM | > 100000 nM | 553 nM | > 80800 nM |
| CCCCCCC(O)CC[C@H]1CCC[C@@H](C)N1 (some centres not stated) | – | > 31600 nM | – | < 10000 nM | – | < 10000 nM | – | > 100000 nM | – | > 100000 nM | – | > 100000 nM | – | > 31600 nM | – | > 100000 nM | – | < 10000 nM | – | < 10000 nM |
| O=C1CCC2(c3ccccc3)Nc3ccccc3N12 (configuration not stated) | – | > 100000 nM | – | > 100000 nM | – | > 100000 nM | – | > 100000 nM | – | > 100000 nM | – | > 100000 nM | – | > 100000 nM | – | > 100000 nM | – | > 100000 nM | – | > 100000 nM |
| O=[N+]([O-])c1cc([As](Br)c2ccc(O)c([N+](=O)[O-])c2)ccc1O | – | 4470 nM | – | 3530 nM | – | 4360 nM | – | 3300 nM | – | 3560 nM | – | 4630 nM | – | 25000 nM | – | 3600 nM | – | 3280 nM | – | 4370 nM |
| CCOC(=O)c1sc(-c2ccc(OS(=O)(=O)C[C@]34CCC(CC3=O)C4(C)C)c(C=O)c2)nc1C | 694 nM | 1430 nM | 904 nM | 2720 nM | 1390 nM | 4090 nM | 1410 nM | 4580 nM | 1040 nM | 2690 nM | 1270 nM | 3290 nM | 1230 nM | 3340 nM | 1070 nM | 2850 nM | 1490 nM | > 50000 nM | 1040 nM | 2640 nM |
| Clc1ccc(/C=C/c2ccc3ccccc3n2)cc1 | 441 nM | > 100000 nM | 917 nM | 6730 nM | 6330 nM | > 100000 nM | 2060 nM | > 100000 nM | 553 nM | > 100000 nM | 268 nM | 828 nM | 2620 nM | 8800 nM | 716 nM | > 80800 nM | > 69800 nM | > 100000 nM | 3080 nM | > 100000 nM |
